From publication PMC8151276, “An Integrated Approach toward NanoBRET Tracers for Analysis of GPCR Ligand Engagement” (Molecules, 2021)

Target: T1, HTR1B (Homo sapiens, UniProt P28222)
T1 construct: purchased Promega (in-house HiBiT-GPCR construct library, NanoBRET)
Assay: NanoBRET screen HiBiT-HTR1B in HEK293
Assay type: binding
Procedure: Each tracer candidate was screened across the entire library of HiBiT-GPCR constructs using NanoBRET as the detection modality. As depicted in Figure 4A, the specificity of interactions was evaluated through decrease in BRET due to competitive displacement of a bound tracer by excess parental compound. Each tracer was analyzed for binding to each HiBiT-GPCR fusion in the absence and in the presence of competing parental compound. Briefly, HEK293 cells were transfected with HiBiT-GPCR constructs diluted into promoterless DNA to reduce expression and maximize translocation to the cell surface. Each tracer candidate was then screened at concentrations of 1 μM and 0.1 μM across cells expressing these fusions. Cells were treated for 1.5 h with tracer either alone or in the presence of 20 μM competing parental compound (i.e., control). BRET was measured upon addition of purified LgBiT and subsequent complementation with HiBiT genetically fused to a GPCR. The specificity of interactions was assessed through a decrease in BRET signal due to competitive displacement of the bound tracer. To further gauge the robustness of these interactions, the fold response over the control (i.e., BRETtracer/BRETcontrol) was calculated. We chose a 1.5-fold response, which translates to ≥7-fold signal over noise as the minimal threshold required to score an interaction as positive. […]. Below we highlight the screening results obtained for our exemplary fluorescent tracers based on Clozapine, Amitriptyline and AZD1283.
HiBiT-GPCR DNA constructs were diluted in 10 mM Tris pH 8 to a final concentration of 0.01 μg/μL, arrayed in 96-well plates and stored at −20 °C. For transfection, HEK293 cells were suspended in Opti-MEM (without phenol red) supplemented with 2% fetal bovine serum (Seradigm) and 100 units/mL penicillin–streptomycin (Gibco) at a final concentration of 220,000 cells/mL and dispensed into white 96-well plates at 90 μL/well. Subsequent transfections and screens were carried using an Agilent Bravo Automated Liquid Handling Platform. First, the 96-well HiBiT DNA arrays were diluted 25-fold in Opti-MEM (without serum or phenol red) to a final concentration of 0.0004 μg/μL and 20 μL of the diluted DNAs were transferred into new 96-well plates. Next, promoterless carrier DNA (1 μg/μL) was diluted 25-fold (0.04 μg/μL) and then dispensed into the diluted arrays at 20 μL/well. Following brief mixing, Viafect transfection reagent (Promega) diluted 16-fold into Opti-MEM was dispensed into the plates at 40 μL/well. After mixing by pipetting, plates were incubated for 10 min on the pipetting station deck. The DNA-transfection reagent complexes were then added to plates containing cells. To facilitate the screen, 10 μL of DNA-transfection reagent complexes were added in duplicates to the top 4 and bottom 4 rows, resulting in two identical 48-well arrays per plate. Plates with transfected cells were incubated for 18–20 h at 37 °C/5% CO2. A screen of each tracer across the entire library using two different concentrations requires duplicate plates of transfected cells. Depending on the number of tracers being screened, transfections can be scaled up using the same ratios. The next day, for each tracer, four 20× screening solutions in tracer dilution buffer (Promega) were prepared: two duplicates at final concentration of 20 μM and two duplicates at a final concentration of 2 μM. A competing unmodified compound was added to one of each duplicate at a final concentration of 400 μM. The four resulting solutions were diluted 4-fold in Opti-MEM without serum or phenol red to generate 5× solutions (5 µM and 0.5 µM tracer +/− 100 μM competing compound). To screen the library, a BioTek MultiFlo FX liquid dispenser was used to dispense 22.5 µL of tracer solution to the top 4 rows and 22.5 µL tracer + competing compound solution to the 4 bottom rows. Plates were briefly mixed on an orbital shaker and incubated for 1.5 h at room temperature. […]

T1 sequence (P28222 whole entry): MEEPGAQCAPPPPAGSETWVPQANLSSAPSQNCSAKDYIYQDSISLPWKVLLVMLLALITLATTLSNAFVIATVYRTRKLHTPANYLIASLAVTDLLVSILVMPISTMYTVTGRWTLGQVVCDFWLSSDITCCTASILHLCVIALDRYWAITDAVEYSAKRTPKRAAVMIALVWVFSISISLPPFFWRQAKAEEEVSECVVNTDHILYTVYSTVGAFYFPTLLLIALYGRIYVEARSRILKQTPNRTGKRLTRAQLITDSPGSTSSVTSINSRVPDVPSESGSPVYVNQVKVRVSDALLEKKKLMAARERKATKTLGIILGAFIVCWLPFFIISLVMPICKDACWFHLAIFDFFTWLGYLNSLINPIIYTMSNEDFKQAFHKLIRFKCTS

Row | Compound | NanoBRET Fold Response (HTR1B, tracer 0.1μM) | NanoBRET Fold Response (HTR1B, tracer 1μM) | also measured
1 | O=C(CCc1ccc2n1[B-](F)(F)[N+]1=C(c3ccc[nH]3)C=CC1=C2)NCc1ccc(C(=O)NCCOCCC(=O)N[C@@H]2CC[C@@]3(O)[C@H]4Cc5ccc(O)c6c5[C@@]3(CCN4CC3CC3)[C@H]2O6)cc1 [Naltrexone-3-NB590] | 1.01 | 1.33 | 
2 | CCCn1c(=O)c2[nH]c(-c3ccc(OCC(=O)NCCNC(=O)CCOCCNC(=O)c4ccc(CNC(=O)CCc5ccc6n5[B-](F)(F)[N+]5=C(c7ccc[nH]7)C=CC5=C6)cc4)cc3)nc2n(CCC)c1=O [XAC-3-NB590] | 0.66 | 1.24 | 
3 | CC(C)N(CC[C@H](c1ccccc1)c1cc(CCNC(=O)c2ccc(CNC(=O)CCc3ccc4n3[B-](F)(F)[N+]3=C(c5ccc[nH]5)C=CC3=C4)cc2)ccc1O)C(C)C [Tolterodine-BZ-NB590] | 1.12 | 1.33 | 
4 | N#CN/C(=N\CCNC(=O)c1ccc(N)cc1)NCCCOc1cccc(CN2CCCCC2)c1 [Aminopotentidine (unmodified)] |  |  | NanoBRET Fold Response (HTR1B, other tracers/Aminopotentidine (unmodified), 0.1μM): 1.50; NanoBRET Fold Response (HTR1B, other tracers/Aminopotentidine (unmodified), 1μM): 1.48
5 | COc1ccc2[nH]c(-c3ccc(CNC(=O)CCOCCOCCOCCOCCNC(=O)CCc4ccc5n4[B-](F)(F)[N+]4=C(c6ccc[nH]6)C=CC4=C5)cc3)c(CCNC(C)=O)c2n1 [AzomelatoninICO9-2-NB590] |  |  | NanoBRET Fold Response (0.1μM tracer): 0.92; NanoBRET Fold Response (1μM tracer): 1.13
6 | CN1CCN(C2=Nc3cc(Cl)ccc3N(CC(=O)NCCOCCOCCOCCOCCNC(=O)CCc3ccc4n3[B-](F)(F)[N+]3=C(c5ccc[nH]5)C=CC3=C4)c3ccccc32)CC1 [Clozapine-c-2-NB590] |  |  | NanoBRET Fold Response (HTR1B, 0.1μM tracer): 0.95; NanoBRET Fold Response (HTR1B, 1μM tracer): 1.47
7 | COc1ccccc1N1CCN(CCCCN2C(=O)c3ccc(CNC(=O)CCOCCNC(=O)c4ccc(CNC(=O)CCc5ccc6n5[B-](F)(F)[N+]5=C(c7ccc[nH]7)C=CC5=C6)cc4)cc3C2=O)CC1 [NAN-190-3-NB590] | 1.38 | 1.42 | 
8 | Cc1nc2n(c(=O)c1CCN1CCC(c3noc4cc(F)ccc34)CC1)CCCC2OC(=O)NCCOCCOCCOCCOCCNC(=O)CCc1ccc2n1[B-](F)(F)[N+]1=C(c3ccc[nH]3)C=CC1=C2 (stereo not drawn) [Risperidone-2-NB590] | 3.33 | 2.70 | 
9 | O=C(CCOCCOCCOCCOCCNC(=O)CCc1ccc2n1[B-](F)(F)[N+]1=C(c3ccc[nH]3)C=CC1=C2)NCCCN1CCN(C2=Nc3ccccc3Oc3ccc(Cl)cc32)CC1 [Loxapine-a-2-NB590] | 2.42 | 2.84 | 
10 | COc1ccccc1N1CCN(CCCCN2C(=O)c3ccc(CNC(=O)CCOCCOCCOCCOCCNC(=O)CCc4ccc5n4[B-](F)(F)[N+]4=C(c6ccc[nH]6)C=CC4=C5)cc3C2=O)CC1 [NAN-190-2-NB590] | 1.73 | 1.25 | 
11 | CC(C)N(CC[C@H](c1ccccc1)c1cc(CCNC(=O)CCOCCOCCOCCOCCNC(=O)CCc2ccc3n2[B-](F)(F)[N+]2=C(c4ccc[nH]4)C=CC2=C3)ccc1O)C(C)C [Tolterodine-2-NB590] | 0.79 | 1.12 | 
12 | N#CN=C(NCCCOc1cccc(CN2CCCCC2)c1)NCCNC(=O)CCOCCOCCOCCOCCNC(=O)CCc1ccc2n1[B-](F)(F)[N+]1=C(c3ccc[nH]3)C=CC1=C2 [Aminopotentidine-2-NB590] | 0.98 | 1.03 | 
13 | CCOC(=O)c1cc(C#N)c(N2CCC(C(=O)NS(=O)(=O)Cc3ccccc3/C=C/C(=O)NCCNC(=O)CCc3ccc4n3[B-](F)(F)[N+]3=C(c5ccc[nH]5)C=CC3=C4)CC2)nc1C [AZD1283-1-NB590] |  |  | NanoBRET Fold Response (HTR1B, 0.1μM): 0.89; NanoBRET Fold Response (HTR1B, 1μM): 0.99
14 | CN(C)CCC=C1c2ccccc2CCc2ccc(C(=O)NCCNC(=O)CCOCCOCCOCCOCCNC(=O)CCc3ccc4n3[B-](F)(F)[N+]3=C(c5ccc[nH]5)C=CC3=C4)cc21 [Amitriptyline-b-2-NB590] |  |  | NanoBRET Fold Response (tracer at 0.1μM, listed as amitriptyline-b-2-NB590): 1.76; NanoBRET Fold Response (tracer at 1μM, listed as amitriptyline-b-2-NB590): 1.34
15 | CN(C)CCC=C1c2ccccc2CCc2ccc(C(=O)NCCNC(=O)CCOCCOCCOCCOCCNC(=O)CCc3ccc4n3[B-](F)(F)[N+]3=C(c5ccc[nH]5)C=CC3=C4)cc21 [Amitriptyline-a-2-NB590] |  |  | NanoBRET Fold Response (tracer at 0.1μM): 0.98
16 | O=C(CCc1ccc2n1[B-](F)(F)[N+]1=C(c3ccc[nH]3)C=CC1=C2)NCCOCCOCCNC(=O)OCCOCCN1CCN(C2=Nc3ccccc3Sc3ccccc32)CC1 [Quetiapine-a-2-NB590] | 1.03 | 1.58 | 
17 | Cc1cc2c(s1)Nc1ccccc1N=C2N1CCN(CCCNC(=O)CCOCCOCCOCCOCCNC(=O)CCc2ccc3n2[B-](F)(F)[N+]2=C(c4ccc[nH]4)C=CC2=C3)CC1 [Olanzapine-a-2-NB590] | 2.53 | 2.81 | 
18 | CN1CCN(C2=Nc3cc(Cl)ccc3Nc3ccc(CNC(=O)CCOCCOCCOCCOCCNC(=O)CCc4ccc5n4[B-](F)(F)[N+]4=C(c6ccc[nH]6)C=CC4=C5)cc32)CC1 [Clozapine-b-2-NB590] |  |  | NanoBRET Fold Response (HTR1B, 0.1μM tracer): 2.07; NanoBRET Fold Response (HTR1B, 1μM tracer): 2.97
19 | COc1ccc2c(n1)c(CCNC(C)=O)cn2CCNC(=O)CCc1ccc2n1[B-](F)(F)[N+]1=C(c3ccc[nH]3)C=CC1=C2 [Azamelatonin-1-NB590] |  |  | NanoBRET Fold Response (0.1μM tracer): 0.74; NanoBRET Fold Response (1μM tracer): 0.74
20 | CN(CCC=C1c2ccccc2CCc2ccccc21)C(=O)CCOCCOCCOCCOCCNC(=O)CCc1ccc2n1[B-](F)(F)[N+]1=C(c3ccc[nH]3)C=CC1=C2 [Amitriptyline-e-2-NB590] |  |  | NanoBRET Fold Response (tracer at 1μM): 1.01
21 | O=C(CCc1ccc2n1[B-](F)(F)[N+]1=C(c3ccc[nH]3)C=CC1=C2)NCc1ccc(C(=O)NCCOCCOCCNCC(O)COc2cccc3ccccc23)cc1 (stereo not drawn) [Propranolol-3-NB590] |  |  | NanoBRET Fold Response (HTR1B, 0.1μM): 0.99; NanoBRET Fold Response (HTR1B, 1μM): 1.06
22 | O=C(CCOCCOCCOCCOCCNC(=O)CCc1ccc2n1[B-](F)(F)[N+]1=C(c3ccc[nH]3)C=CC1=C2)NCCCN1CCN(C2=Nc3cc(Cl)ccc3Nc3ccccc32)CC1 [Clozapine-a-2-NB590] |  |  | NanoBRET Fold Response (HTR1B, 0.1μM tracer): 4.16; NanoBRET Fold Response (HTR1B, 1μM tracer): 2.29
